Results on 63 molecules are retold here after PubChem BioAssay AID504672 (Sanford-Burnham Center for Chemical Genomics, 2011).

The source made the active and inactive calls. No stated cut-off is given here; in the data, active means IC50 below about 71 µM; inactive means the rest. Bounds are passed on as bounds.

This assay deals with S. cerevisiae tim10 strain, luminescence counterscreen. In words: TIM10 strain luminescence inhibitors – S. cerevisiae, uHTS hits, counter-screen for tim23-1 inhibitor project, dose response (AID 504672).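 Further: yeast grew roughly 22 hours at 25 °C before the luminescence read.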 In general terms: The purpose of a counterscreen is to sort out artefacts and off-target activity.

For the molecule `O=C(Nc1ccc2oc(-c3ccccc3)nc2c1)c1cccs1`, the IC50 (usually the concentration needed to halve the response being measured) is less than 0.2 µM.

On to `C(=C\c1ccccc1)/C=N/Nc1nc2ccccc2[nH]1`, for which the IC50 is 38.7 µM.

With `O=C(NC(=S)NC(=O)c1ccccc1F)c1ccccc1F`, the IC50 was 8.39 µM.

As for `N#C/C(C(N)=O)=c1/ccc2c(c1)N1C3=C(CCCC3)CC3CCCCC31N=2` (stereo not drawn), the IC50 was 8.55 µM.

For the molecule `C=CCNC(=O)c1ccc2c3n(nc2c1)-c1ccc(Cl)cc1CO3`, the IC50 was 8.34 µM.

As for `Fc1ccccc1-c1cc2cc3c(cc2cn1)OCO3`, the half-inhibitory concentration (IC50) was 25 µM.

Consider `CC(=O)Nc1ncnc2c1c(-c1ccc(Cl)cc1)nn2C(C)(C)C`, for which the IC50 was 9.62 µM.

Consider `NNC(=O)c1nc(-c2ccccc2)cc(-c2ccccc2)n1`, for which the IC50 is 12.5 µM.

With `COc1cccc2c1C(=O)C=C(C)C2=O`, the half-maximal inhibitory concentration (IC50) is 13.2 µM.

Regarding `Cc1ccn(-c2ccc(NC(=O)c3cccs3)cc2)n1`, the half-inhibitory concentration (IC50) is 5.12 µM.

As to `COc1cc2c3c(c1)C(C)CC(C)(C)N3C(=O)C2=O` (stereo not drawn), the half-inhibitory concentration (IC50) is 13.8 µM.

As for `CCOC(=O)c1c(C)oc2c(F)c(F)c(F)c(F)c2c1=O`, the IC50 is 26.8 µM.

Take `CCOc1nc2ccccc2cc1C=O`: the concentration for half-maximal inhibition (IC50) is 1.69 µM.

As to `COc1ccc(C(=O)Nc2nc3ccccc3s2)c(OC)c1`, the IC50 was 7.13 µM.

With `Cn1cccc1-c1nc2ccc(NC(=O)c3cccs3)cc2[nH]1`, the IC50 is 28.2 µM.

On to `O=C(Nc1ccc2nc(-c3ccc(Br)o3)[nH]c2c1)c1ccco1`, for which the 50% inhibitory concentration (IC50) is 6.75 µM.

For the molecule `Cc1ccc(CS(=O)(=O)c2ncc(Cl)c(C(=O)Nc3ccc(OC(F)F)cc3)n2)cc1`, the IC50 is 5.88 µM.

Consider `Cc1nn(CC(=O)Nc2nc3ccccc3s2)c(C)c1[N+](=O)[O-]`, for which the IC50 was 18.4 µM.

On to `CCN(CC)c1ccc(C(=O)Nc2cccc(F)c2)cc1`, for which the half-inhibitory concentration (IC50) was 5.64 µM.

As to `CC(=O)Nc1cccc(-c2cc(-c3c(Cl)cccc3Cl)no2)c1`, the concentration for half-maximal inhibition (IC50) is 8.63 µM.

For the molecule `Cc1ccc(Nc2nc(-c3cccnc3)nc3ccccc23)cc1`, the IC50 was 65.8 µM.

As for `CC1=C(C)/C(=N/OC(=O)c2cccc([N+](=O)[O-])c2)C=CC1=O`, the concentration for half-maximal inhibition (IC50) was 5.21 µM.

`Brc1ccc(OCc2nnnn2-c2ccccc2)cc1`: the IC50 is 11 µM.

`COc1ccc(S(=O)(=O)CC(=O)c2cc3cccc(C)c3oc2=O)cc1`: the IC50 was 15.4 µM.

Consider `Cn1c(C(=O)Nc2ccc3c(c2)OCCO3)cc2sccc21`, for which the 50% inhibitory concentration (IC50) is 7.59 µM.

`Cc1cccc(OCCN2C(=O)C(=O)c3cc(C)ccc32)c1`: the IC50 is 11.6 µM.

Take `CC(C)(C)c1csc(NC(=O)c2ccc(Cl)s2)n1`: the 50% inhibitory concentration (IC50) is 24.6 µM.

Take `Cc1ccccc1OCCCSc1nc2ccccc2[nH]1`: the half-inhibitory concentration (IC50) is 6.45 µM.

`O=C(N/N=C/c1cc(Br)cc(Br)c1O)c1cccc(N2CCCC2=O)c1`: the half-inhibitory concentration (IC50) is 4.11 µM.

As to `O=Cc1cccnc1SCc1ccccc1`, the concentration for half-maximal inhibition (IC50) was 12.1 µM.

Turning to `COCCNC(=O)/C(C#N)=C/c1ccc(OCc2ccc(F)cc2)cc1`, the 50% inhibitory concentration (IC50) is 11.3 µM.

For `COc1ccc(C(=O)N/N=C\c2coc3ccc(Cl)cc3c2=O)cc1`, the concentration for half-maximal inhibition (IC50) was 32.5 µM.

In the case of `CC(C)OC(=O)c1cccnc1SCc1cc(=O)n2ccccc2n1`, the IC50 was 42.4 µM.

As for `CC(C)CCN1C(=O)c2cccc3c(N)ccc(c23)C1=O`, the IC50 was 10.6 µM.

As to `Cn1c(-c2sc3ccccc3c2Cl)n[nH]c1=S`, the half-maximal inhibitory concentration (IC50) is 5.74 µM.

Turning to `Cc1ccn2cc(C(=O)Nc3ccc4c(c3)OCCO4)nc2c1`, the IC50 is > 100 µM (inactive).

Turning to `O=C(Nc1ccccc1)C1C(c2ccccc2)C1(Cl)Cl` (stereo not drawn), the half-maximal inhibitory concentration (IC50) is 20.6 µM.

Turning to `O=C(N/N=C/c1ccco1)c1cc2ccccc2o1`, the half-inhibitory concentration (IC50) was 22.2 µM.

On to `N#C/C(=C\c1ccc(Cl)cc1)C(=O)Nc1cccnc1`, for which the IC50 was 24.3 µM.

In the case of `O=c1cc(C(Cl)(Cl)Cl)oc2c1ccc1ccccc12`, the concentration for half-maximal inhibition (IC50) is 63.8 µM.

As for `Cc1csc2nc(O)c(C(=O)NC3CCCCC3)c(=O)n12`, the half-inhibitory concentration (IC50) is 9.27 µM.

In the case of `c1ccc2[nH]c(-c3ccc4c(c3)OCO4)nc2c1`, the concentration for half-maximal inhibition (IC50) is 12.4 µM.

With `COc1cccc(CNn2c(-c3cccc(C)c3)nc3ccccc3c2=O)c1O`, the half-inhibitory concentration (IC50) was 13 µM.

Consider `N#C/C(=C\c1ccc(OCc2ccccc2)cc1)C(N)=O`, for which the 50% inhibitory concentration (IC50) was 27.9 µM.

For `O=C(Nc1ccc(-c2cn3c(n2)SCC3)cc1)c1ccco1`, the IC50 was 38.3 µM.

Turning to `O=C(Nc1cc(-c2ccccc2)[nH]n1)c1ccccc1`, the IC50 is 43.3 µM.

Take `CC1CCc2c(sc3nc(C(C)(C)C)nc(N4CCN(C(=O)CCl)CC4)c23)C1` (stereo not drawn): the half-maximal inhibitory concentration (IC50) is 23.3 µM.

For `CCOC(=O)c1c(NC(=O)CSc2nnnn2-c2ccc(OC)cc2)sc(C)c1C`, the IC50 is 11.6 µM.

Take `COC(=O)c1ccc2nc(NC(=O)C3CC3)sc2c1`: the IC50 is 15.3 µM.

Turning to `COc1cccc(C(=O)Nc2ccccc2)c1`, the IC50 is 24.4 µM.

For `Cc1cc(C)nc(SCC(=O)c2cc3ccccc3oc2=O)n1`, the concentration for half-maximal inhibition (IC50) is 32.1 µM.

Consider `CCC(C)c1ccc(NC(=O)C2CC3CCC2C3)cc1` (stereo not drawn), for which the half-maximal inhibitory concentration (IC50) was 19.4 µM.

Consider `O=C(Nc1ccc(C(=O)N2CCCc3ccccc32)cc1)c1cccs1`, for which the concentration for half-maximal inhibition (IC50) is 15.2 µM.

For `O=C(N/N=C/C(Cl)=C\c1ccccc1)c1cccs1`, the concentration for half-maximal inhibition (IC50) is 59.1 µM.

As to `COc1cc(/C=N/NC(=O)c2ccc(N)cc2)ccc1OC(=O)c1cccc(C)c1`, the 50% inhibitory concentration (IC50) is 7.44 µM.

Turning to `Cc1ccc(-c2nc(CNC(=O)c3cc(C)on3)cs2)cc1`, the IC50 is 19.8 µM.

For `Cc1csc2nc(O)c(C(=O)NCCC3=CCCCC3)c(=O)n12`, the IC50 is 3.43 µM.

Turning to `CC1(C)OC(=O)C(=Cc2ccc[nH]2)C(=O)O1`, the IC50 was 7.41 µM.

Turning to `O=C(Nc1ccc(Nc2ccccc2)cc1)c1ccc(Cl)c([N+](=O)[O-])c1`, the 50% inhibitory concentration (IC50) was 10.8 µM.

With `Cc1nc2ccccc2c(=O)n1/N=C/c1cc(Br)ccc1O`, the 50% inhibitory concentration (IC50) was 10.8 µM.

Consider `Cc1cc(=O)oc2c1c(C(F)(F)F)nn2-c1ccccc1`, for which the IC50 was 6.41 µM.

Turning to `COCCn1c(C)cc(C(=O)COC(=O)c2ccc([N+](=O)[O-])o2)c1C`, the IC50 is 8.28 µM.

Turning to `CC1(S(=O)(=O)O)CC(=O)c2ccccc2C1=O` (stereo not drawn), the 50% inhibitory concentration (IC50) is 7.14 µM.
